Measured values as given in PubChem BioAssay AID256 (DTP/NCI, 2004).
Where “and” joins values, the source holds several entries; their conditions need not be identical. Equal entries are not always repeated. Inconclusive results and toxic doses are left out.

System: CD2F1 mice, L1210 leukemia ip, survival T/C
Assay: NCI In Vivo Anticancer Drug Screen. Data for tumor model L1210 Leukemia (intraperitoneal) in CD2F1 (CDF1) mice
Conditions: higher = longer survival
In short: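 Mice carrying a transplanted tumor received test compound or vehicle alone. The value is the measurement in the treated group divided by that in the vehicle-treated control group.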

[1] = endpoint: mean survival time, dose: 25.0 mg/kg/injection, schedule: Q04DX003 (ip), vehicle: saline
[2] = endpoint: mean survival time, dose: 50.0 mg/kg/injection, schedule: Q04DX003 (ip), vehicle: saline
[3] = endpoint: mean survival time, dose: 100.0 mg/kg/injection, schedule: Q01DX001 (ip), vehicle: saline
[4] = endpoint: mean survival time, dose: 50.0 mg/kg/injection, schedule: Q01DX009 (ip), vehicle: saline with Tween-80
[5] = endpoint: mean survival time, dose: 100.0 mg/kg/injection, schedule: Q01DX009 (ip), vehicle: saline with Tween-80
[6] = endpoint: mean survival time, dose: 200.0 mg/kg/injection, schedule: Q01DX009 (ip), vehicle: saline with Tween-80
[7] = endpoint: mean survival time, dose: 25.0 mg/kg/injection, schedule: Q04DX002 (ip), vehicle: saline with Tween-80
[8] = endpoint: mean survival time, dose: 1.25 mg/kg/injection, schedule: Q01DX009 (ip), vehicle: saline with Tween-80
[9] = endpoint: mean survival time, dose: 2.5 mg/kg/injection, schedule: Q01DX009 (ip), vehicle: saline with Tween-80
[10] = endpoint: mean survival time, dose: 5.0 mg/kg/injection, schedule: Q01DX009 (ip), vehicle: saline with Tween-80

CC1CCN(N=Nc2ccc(Br)cc2-c2nc(N)c3cc(Br)ccc3n2)CC1
T/C (endpoint: mean survival time, dose: 6.25 mg/kg/injection, schedule: Q01DX005 (ip), vehicle: other): 92 % of control
T/C (endpoint: mean survival time, dose: 12.5 mg/kg/injection, schedule: Q01DX005 (ip), vehicle: other): 103 % of control
T/C (endpoint: mean survival time, dose: 25.0 mg/kg/injection, schedule: Q01DX005 (ip), vehicle: other): 95 % of control
T/C (endpoint: mean survival time, dose: 50.0 mg/kg/injection, schedule: Q01DX005 (ip), vehicle: other): 92 % of control
T/C (endpoint: mean survival time, dose: 100.0 mg/kg/injection, schedule: Q01DX005 (ip), vehicle: other): 92 % of control

OCc1ccccc1OC1OC(CO)C(O)C(O)C1O (stereo not given)
T/C (endpoint: mean survival time, dose: 50.0 mg/kg/injection, schedule: Q01DX009 (ip), vehicle: Klucel (hydroxypropylcellulose) (HPC)): 96 % of control
T/C (endpoint: mean survival time, dose: 100.0 mg/kg/injection, schedule: Q01DX009 (ip), vehicle: Klucel (hydroxypropylcellulose) (HPC)): 101 % of control
T/C (endpoint: mean survival time, dose: 200.0 mg/kg/injection, schedule: Q01DX009 (ip), vehicle: Klucel (hydroxypropylcellulose) (HPC)): 108 % of control

CN(CCOS(C)(=O)=O)CCOS(C)(=O)=O
T/C (endpoint: mean survival time, dose: 5.0 mg/kg/injection, schedule: Q01DX001 (ip), vehicle: saline): 121 % of control

CC1(C)C(N2CCCCC2)CS1(=O)=O (stereo not given)
T/C [1]: 98 % of control
T/C [2]: 95 % of control
T/C [3]: 101 % of control

CNc1ncn(-c2c(C)cccc2C)c(=O)n1
T/C (endpoint: median survival time, dose: 3.12 mg/kg/injection, schedule: Q01DX005 (ip), vehicle: Klucel (hydroxypropylcellulose) (HPC)): 101 % of control
T/C (endpoint: median survival time, dose: 6.25 mg/kg/injection, schedule: Q01DX005 (ip), vehicle: Klucel (hydroxypropylcellulose) (HPC)): 97 % of control
T/C (endpoint: median survival time, dose: 12.5 mg/kg/injection, schedule: Q01DX005 (ip), vehicle: Klucel (hydroxypropylcellulose) (HPC)): 102 % of control
T/C (endpoint: median survival time, dose: 25.0 mg/kg/injection, schedule: Q01DX005 (ip), vehicle: Klucel (hydroxypropylcellulose) (HPC)): 100 % of control
T/C (endpoint: median survival time, dose: 50.0 mg/kg/injection, schedule: Q01DX005 (ip), vehicle: Klucel (hydroxypropylcellulose) (HPC)): 108 % of control
T/C (endpoint: median survival time, dose: 50.0 mg/kg/injection, schedule: Q01DX005 (ip), vehicle: saline with Tween-80): 119 % of control and 98 % of control and 102 % of control
T/C (endpoint: median survival time, dose: 100.0 mg/kg/injection, schedule: Q01DX005 (ip), vehicle: saline with Tween-80): 123 % of control and 98 % of control and 110 % of control
T/C (endpoint: median survival time, dose: 200.0 mg/kg/injection, schedule: Q01DX005 (ip), vehicle: saline with Tween-80): 122 % of control and 107 % of control

S=C(Nc1ccccc1)N1CCCC1
T/C [4]: 96 % of control
T/C [5]: 100 % of control
T/C [6]: 102 % of control

Nc1cc(C(=O)Nc2ccc(C3=NCCN3)cc2)cc(C(=O)Nc2ccc(C3=NCCN3)cc2)c1
T/C (endpoint: mean survival time, dose: 31.3 mg/kg/injection, schedule: Q01DX010 (oral), vehicle: saline): 115 % of control
T/C (endpoint: mean survival time, dose: 250.0 mg/kg/injection, schedule: Q01DX010 (oral), vehicle: saline): 159 % of control

CCCCO.[Ti]
T/C [5]: 103 % of control
T/C [6]: 97 % of control
T/C (endpoint: mean survival time, dose: 400.0 mg/kg/injection, schedule: Q01DX009 (ip), vehicle: saline with Tween-80): 104 % of control

C=CCC1(C)C(OC(C)=O)/C(=C\c2ccco2)CC2(C)c3cc(OC)ccc3CCC21 (stereo not given)
T/C [3]: 101 % of control
T/C (endpoint: mean survival time, dose: 200.0 mg/kg/injection, schedule: Q01DX001 (ip), vehicle: saline): 96 % of control
T/C (endpoint: mean survival time, dose: 400.0 mg/kg/injection, schedule: Q01DX001 (ip), vehicle: saline): 96 % of control

Cc1ccc(S(=O)(=O)ON/N=C2\C(=O)C3CCC2C3)cc1 (stereo not given)
T/C [7]: 100 % of control
T/C (endpoint: mean survival time, dose: 50.0 mg/kg/injection, schedule: Q04DX002 (ip), vehicle: saline with Tween-80): 96 % of control
T/C (endpoint: mean survival time, dose: 100.0 mg/kg/injection, schedule: Q04DX002 (ip), vehicle: saline with Tween-80): 112 % of control

CC(C)(CCC(=O)O)C(=O)O
T/C [4]: 100 % of control
T/C [5]: 98 % of control
T/C (endpoint: mean survival time, dose: 100.0 mg/kg/injection, schedule: Q04DX003 (ip), vehicle: saline): 102 % of control
T/C [6]: 98 % of control
T/C (endpoint: mean survival time, dose: 200.0 mg/kg/injection, schedule: Q04DX003 (ip), vehicle: saline): 96 % of control

O=C(NO)c1cccc(O)c1O
T/C (endpoint: median survival time, dose: 200.0 mg/kg/injection, schedule: Q01DX009 (ip), vehicle: distilled water + Tween-80): 162 % of control
T/C (endpoint: median survival time, dose: 300.0 mg/kg/injection, schedule: Q01DX009 (ip), vehicle: distilled water + Tween-80): 170 % of control
T/C (endpoint: median survival time, dose: 450.0 mg/kg/injection, schedule: Q01DX009 (ip), vehicle: distilled water + Tween-80): 104 % of control

O=C/C(Cl)=C(/Cl)C(=O)O
T/C [8]: 100 % of control
T/C [9]: 98 % of control
T/C [10]: 108 % of control
T/C (endpoint: mean survival time, dose: 6.25 mg/kg/injection, schedule: Q04DX002 (ip), vehicle: saline with Tween-80): 103 % of control
T/C (endpoint: mean survival time, dose: 10.0 mg/kg/injection, schedule: Q01DX009 (ip), vehicle: saline with Tween-80): 104 % of control
T/C (endpoint: mean survival time, dose: 12.5 mg/kg/injection, schedule: Q04DX002 (ip), vehicle: saline with Tween-80): 107 % of control
T/C (endpoint: mean survival time, dose: 20.0 mg/kg/injection, schedule: Q01DX009 (ip), vehicle: saline with Tween-80): 103 % of control
T/C [7]: 111 % of control

CNc1ccccc1CO
T/C (endpoint: mean survival time, dose: 100.0 mg/kg/injection, schedule: Q01DX009 (ip), vehicle: other): 107 % of control
T/C (endpoint: mean survival time, dose: 200.0 mg/kg/injection, schedule: Q01DX009 (ip), vehicle: other): 97 % of control
T/C (endpoint: mean survival time, dose: 400.0 mg/kg/injection, schedule: Q01DX009 (ip), vehicle: other): 103 % of control

CC(C)(C#N)N1CCCCC1
T/C [8]: 107 % of control
T/C [9]: 104 % of control
T/C [10]: 98 % of control
T/C (endpoint: mean survival time, dose: 5.0 mg/kg/injection, schedule: Q04DX003 (ip), vehicle: saline): 101 % of control

S=C1CCNCC1
T/C (endpoint: mean survival time, dose: 12.5 mg/kg/injection, schedule: Q01DX009 (ip), vehicle: saline): 98 % of control
T/C (endpoint: mean survival time, dose: 12.5 mg/kg/injection, schedule: Q04DX003 (ip), vehicle: saline): 100 % of control
T/C (endpoint: mean survival time, dose: 25.0 mg/kg/injection, schedule: Q01DX009 (ip), vehicle: saline): 103 % of control
T/C [1]: 96 % of control
T/C (endpoint: mean survival time, dose: 50.0 mg/kg/injection, schedule: Q01DX009 (ip), vehicle: saline): 104 % of control
T/C [2]: 87 % of control

NC1=C(Br)C(=O)C(=O)c2ccccc21
T/C (endpoint: mean survival time, dose: 100.0 mg/kg/injection, schedule: Q01DX001 (ip), vehicle: saline with Tween-80): 101 % of control
T/C (endpoint: mean survival time, dose: 200.0 mg/kg/injection, schedule: Q01DX001 (ip), vehicle: saline with Tween-80): 101 % of control
T/C (endpoint: mean survival time, dose: 400.0 mg/kg/injection, schedule: Q01DX001 (ip), vehicle: saline with Tween-80): 97 % of control

CCCCCCCCCCCC(=O)OCC1OC2C(Oc3nc(=N)ccn32)C1OC(=O)CCCCCCCCCCC (stereo not given)
T/C (endpoint: mean survival time, dose: 12.5 mg/kg/injection, schedule: Q01DX009 (ip), vehicle: water): 168 % of control
T/C (endpoint: mean survival time, dose: 25.0 mg/kg/injection, schedule: Q01DX009 (ip), vehicle: water): 247 % of control
T/C (endpoint: mean survival time, dose: 50.0 mg/kg/injection, schedule: Q01DX009 (ip), vehicle: water): 187 % of control
T/C (endpoint: mean survival time, dose: 100.0 mg/kg/injection, schedule: Q01DX009 (ip), vehicle: water): 98 % of control

Cc1cccc(C(=O)OCCBr)c1
T/C (endpoint: mean survival time, dose: 75.0 mg/kg/injection, schedule: Q01DX009 (ip), vehicle: saline with Tween-80): 102 % of control

Nc1ncnc2c1nc(-c1ccccc1)n2C1OC(CO)C(O)C1O (stereo not given)
T/C (endpoint: median survival time, dose: 25.0 mg/kg/injection, schedule: Q01DX005 (ip), vehicle: distilled water + Tween-80): 100 % of control
T/C (endpoint: median survival time, dose: 50.0 mg/kg/injection, schedule: Q01DX005 (ip), vehicle: distilled water + Tween-80): 97 % of control
T/C (endpoint: median survival time, dose: 100.0 mg/kg/injection, schedule: Q01DX005 (ip), vehicle: distilled water + Tween-80): 100 % of control
T/C (endpoint: median survival time, dose: 200.0 mg/kg/injection, schedule: Q01DX005 (ip), vehicle: distilled water + Tween-80): 100 % of control
